Assay: Phase I safety assessment: adverse events (CTCAE v5.0) in patients
[1] = Dose Level 3: 200 mg BID (N = 7)
[2] = Dose Level 3d: 150 mg BID (N = 6)
[3] = all treated population, overall

Procedure: A DLT was defined as a study treatment-related adverse event (TRAE), according to the Common Terminology Criteria for Adverse Events (CTCAE, Version 5.0), with qualifying criteria for certain DLTs (e.g., Grade ≥ 3 diarrhea, was included as a DLT only if lasting >48 h and unresponsive to intensive antidiarrheal medication).
Patients were closely monitored for these potential toxicities during the current study. Safety assessments included recording of AEs and serious AEs (SAEs) from the time of signing the study informed consent form to 30 days after the last dose of study medication. Safety parameters including laboratory evaluations (hematology, coagulation, chemistry, and urinalysis), vital sign measurements and body weight, electrocardiogram (ECG) recordings, ECOG performance status, echocardiogram or multi-gated acquisition (MUGA), and physical examination were assessed at screening, during the study and at 30 days following the last dose. The use of concomitant medications was permitted and details for such medications were recorded.

## C=CC(=O)N1CCC[C@@H](n2nc(C(=O)Nc3ccc(CC(=O)N(C)C)c(C)c3C)c3c(N)ncnc32)C1 [TAS0728]
[1]
  Dermatitis acneiform, ≥Grade 3: 0 n (%)
  Diarrhea, Grade 1: 5 (71.4) n (%)
  Diarrhea, Grade 2: 5 (71.4) n (%)
  Diarrhea, Grade 3: 3 (42.9) n (%)
  Diarrhea, Grade 4: 0 n (%)
  Diarrhea, Grade 5: 0 n (%)
  Diarrhea, Total: 6 (85.7) n (%)
  Diarrhea, ≥Grade 3: 3 (42.9) n (%)
  Dry skin, Grade 1: 2 (28.6) n (%)
  Dry skin, Grade 2: 0 n (%)
  Dry skin, Grade 3: 0 n (%)
  Dry skin, Grade 4: 0 n (%)
  Dry skin, Grade 5: 0 n (%)
  Dry skin, Total: 2 (28.6) n (%)
  Dry skin, ≥Grade 3: 0 n (%)
  Fatigue, Grade 1: 1 (14.3) n (%)
  Fatigue, Grade 2: 3 (42.9) n (%)
  Fatigue, Grade 3: 0 n (%)
  Fatigue, Grade 4: 0 n (%)
  Fatigue, Grade 5: 0 n (%)
  Fatigue, Total: 3 (42.9) n (%)
  Fatigue, ≥Grade 3: 0 n (%)
  Hypokalemia, Grade 1: 2 (28.6) n (%)
  Hypokalemia, Grade 2: 0 n (%)
  Hypokalemia, Grade 3: 0 n (%)
  Hypokalemia, Grade 4: 0 n (%)
  Hypokalemia, Grade 5: 0 n (%)
  Hypokalemia, Total: 2 (28.6) n (%)
  Hypokalemia, ≥Grade 3: 0 n (%)
  Nausea, Grade 1: 1 (14.3) n (%)
  Nausea, Grade 2: 2 (28.6) n (%)
  Nausea, Grade 3: 0 n (%)
  Nausea, Grade 4: 0 n (%)
  Nausea, Grade 5: 0 n (%)
  Nausea, Total: 2 (28.6) n (%)
  Nausea, ≥Grade 3: 0 n (%)
  Oedema peripheral, Grade 1: 2 (28.6) n (%)
  Oedema peripheral, Grade 2: 0 n (%)
  Oedema peripheral, Grade 3: 0 n (%)
  Oedema peripheral, Grade 4: 0 n (%)
  Oedema peripheral, Grade 5: 0 n (%)
  Oedema peripheral, Total: 2 (28.6) n (%)
  Oedema peripheral, ≥Grade 3: 0 n (%)
  Pyrexia, Grade 1: 2 (28.6) n (%)
  Pyrexia, Grade 2: 1 (14.3) n (%)
  Pyrexia, Grade 3: 0 n (%)
  Pyrexia, Grade 4: 0 n (%)
  Pyrexia, Grade 5: 0 n (%)
  Pyrexia, Total: 3 (42.9) n (%)
  Pyrexia, ≥Grade 3: 0 n (%)
  Vomiting, Grade 1: 1 (14.3) n (%)
  Vomiting, Grade 2: 1 (14.3) n (%)
  Vomiting, Grade 3: 0 n (%)
  Vomiting, Grade 4: 0 n (%)
  Vomiting, Grade 5: 0 n (%)
  Vomiting, Total: 2 (28.6) n (%)
  Vomiting, ≥Grade 3: 0 n (%)
[2]
  Adverse events experienced in ≥10% patients, Grade 1: 5 (83.3) n (%)
  Adverse events experienced in ≥10% patients, Grade 2: 5 (83.3) n (%)
  Adverse events experienced in ≥10% patients, Grade 3: 3 (50.0) n (%)
  Adverse events experienced in ≥10% patients, Grade 4: 0 n (%)
  Adverse events experienced in ≥10% patients, Grade 5: 1 (16.7) n (%)
  Adverse events experienced in ≥10% patients, Total: 6 (100) n (%)
  Adverse events experienced in ≥10% patients, ≥Grade 3: 3 (50.0) n (%)
  Back pain, Grade 1: 1 (16.7) n (%)
  Back pain, Grade 2: 1 (16.7) n (%)
  Back pain, Grade 3: 0 n (%)
  Back pain, Grade 4: 0 n (%)
  Back pain, Grade 5: 0 n (%)
  Back pain, Total: 2 (33.3) n (%)
  Back pain, ≥Grade 3: 0 n (%)
  Diarrhea, Grade 1: 2 (33.3) n (%)
  Diarrhea, Grade 2: 1 (16.7) n (%)
  Diarrhea, Grade 3: 2 (33.3) n (%)
  Diarrhea, Grade 4: 0 n (%)
  Diarrhea, Grade 5: 0 n (%)
  Diarrhea, Total: 4 (66.7) n (%)
  Diarrhea, ≥Grade 3: 2 (33.3) n (%)
  Pyrexia, Grade 1: 0 n (%)
  Pyrexia, Grade 2: 2 (33.3) n (%)
  Pyrexia, Grade 3: 0 n (%)
  Pyrexia, Grade 4: 0 n (%)
  Pyrexia, Grade 5: 0 n (%)
  Pyrexia, Total: 2 (33.3) n (%)
  Pyrexia, ≥Grade 3: 0 n (%)
  Vomiting, Grade 1: 2 (33.3) n (%)
  Vomiting, Grade 2: 0 n (%)
  Vomiting, Grade 3: 0 n (%)
  Vomiting, Grade 4: 0 n (%)
  Vomiting, Grade 5: 0 n (%)
  Vomiting, Total: 2 (33.3) n (%)
  Vomiting, ≥Grade 3: 0 n (%)
Overall (N = 19)
  Patients with AEs: 19 (100) n, (%)
  Patients with AEs that had an outcome of death: 1 (5.3) n, (%)
  Patients with AEs that led to study treatment discontinuation: 3 (15.8) n, (%)
  Patients with Grade ≥ 3 AEs: 9 (47.4) n, (%)
  Patients with SAEs: 8 (42.1) n, (%)
  Patients with treatment-related AEs: 17 (89.5) n, (%)
  Patients with treatment-related and Grade ≥ 3 AEs: 6 (31.6) n, (%)
All dose levels
  Patients who died during the study: 4
All treated population, all 19 patients
  Patients who experienced an AE during the study: 100.0%
[3]
  TRAE incidence: diarrhea: 78.9%
  TRAE incidence: fatigue: 21.1%
  TRAE incidence: nausea: 21.1%
  TRAE incidence: vomiting: 21.1%
  TRAEs considered ≥Grade 3 in severity: 31.6%
  ≥Grade 3 TRAE incidence: diarrhea: 26.3%
All treated population, three of 19, diarrhea (200- and 150-mg BID), cardiac arrest (150 mg BID)
  Patients with an SAE considered related to study drug: 15.8%
During the study
  Changes from baseline in clinical laboratory results and standard 12-lead ECG parameters: No clinically meaningful changes from baseline
In total, all dose levels
  Patients who experienced an AE that led to study drug discontinuation: 4
Of 4 deaths
  Deaths >30 days after the last dose of study treatment, all due to clinical progression: 3
Overall population, 8 of 19
  Patients who experienced ≥1 SAE: 42.1%
Overall population, five patients
  Patients with an SAE Grade 3 or higher in severity: 26.3%
overall, 1 patient
  SAE incidence: acute kidney injury: 5.3%
  SAE incidence: back pain: 5.3%
  SAE incidence: cardiac arrest: 5.3%
  SAE incidence: cellulitis: 5.3%
  SAE incidence: clostridium colitis: 5.3%
  SAE incidence: dysphagia: 5.3%
  ≥Grade 3 TRAE incidence: acute kidney injury: 5.3%
  ≥Grade 3 TRAE incidence: cardiac arrest: 5.3%
  ≥Grade 3 TRAE incidence: proteinuria: 5.3%
overall, 2 patients
  SAE incidence: diarrhea: 10.5%
overall, 4 patients (2 each at 200 mg and 150 mg BID)
  SAE incidence: pyrexia: 21.1%
Reduced dose of 150 mg BID
  Patients with diarrhea at a severity ≥Grade 3: 2
Reduced dose of 150 mg BID, 4 of 6
  Patients with diarrhea: 66.7%

Source: paper PMC8426237, “A first-in-human phase I study of TAS0728, an oral covalent binding inhibitor of HER2, in patients with advanced solid tumors with HER2 or HER3 aberrations” (Investigational New Drugs, 2021)
